Reference: PMC6627486, “Ipomoeassin F Binds Sec61α to Inhibit Protein Translocation” (Journal of the American Chemical Society, 2019)
pIC50: −log10 of the molar value.

Experiments:
[1] = test system: HCT116; test: cells; type: cell-based; conditions: Homo sapiens, HCT-116; HCT116, 72 h, Alamar Blue, assayed separately; read-out: Cytotoxicity (IC50)
Description: AlamarBlue Cytotoxicity Assay
MDA-MB-231, MCF-10A and HCT116. Viable cells were counted with a hemocytometer immediately before each experiment . Experiments were done in triplicate. First, 100 μL of MDA-MB-231 cells or MCF-10A cells at the density of 50,000 cells/mL was seeded in a 96-well plate (5,000 cells/well) and then incubated at 37 °C and 5% CO2 for 24 h. The compounds were dissolved in DMSO (dimethyl sulfoxide) to make drug stocks (10 mM). The stock solutions were diluted with the complete DMEM high glucose culture medium to make a series of gradient fresh working solutions right before each test. Subsequently, the cells were treated with 100 μL of the freshly made gradient working solution in a total volume of 200 μL/well for 72 h. After that, the media were discarded and 200 μL of the fresh complete medium containing 10% of AlamarBlue (resazurin) stock solution was added to each well. The plate was then incubated at 37 °C and 5% CO2 for another 3 h. Emission of each well at 620 nm was detected by a microplate reader (BioTek Synergy H1) at excitation 580 nm. For HCT116 WT and mutant lines, cells were seeded at 1000 cells/ well in complete McCoys medium. Compounds were diluted from a DMSO stock into culture medium as described above. Cells were treated for 96 h, then viability measured with AlamarBlue, detected using the conditions described but with a BMG Fluostar Optima Microplate Reader. The percentage of viability compared to the negative control (DMSO-treated cells) was determined. […]
HCT116 and HEK293T. Viable cells were counted using an automated cell counter (BioRad TC20) before each experiment. […] Emission of each well at 620 nm was detected by a microplate reader (Perkin Elmer EnSpire) at excitation 580 nm. The percentage of viability compared to the negative control (DMSO -treated cells) was determined. […]
Figure S1. […] (C) HCT116 colon carcinoma cells were treated with increasing concentrations of analogues 8, 14, 15, CT8, ipomoeassin F or carrier (0.1% DMSO) and cell viability was assessed at 72 h by the Alamar Blue assay (mean ± S.D., n = 4). […]

[2] = test system: MDA-MB-231, MCF7, MCF-10A; test: Cytotoxicity relative to ipomoeassin F across the cell lines of Table 1; type: cell-based, human; conditions: depending on the cell type (Table 1)
Description: Two human breast cancer cell lines (MDA-MB-231 and MCF7) and one human breast non-tumorigenic epithelial cell line (MCF-10A) were maintained in a DMEM high glucose culture medium supplemented with 10% fetal bovine serum (FBS) and 2 mM L-glutamine. The cells were grown in a humidified atmosphere of 5% CO2 and 95% air at 37 °C . The culture medi um w as changed every 2–4 days depending on cell density. Cell cultures were passaged once a week using 0.125% trypsin-EDTA to detach the cells from culture flasks/dishes.
The human colorectal cancer cell line HCT116 was maintained in McCoy’s 5A (modified) medium supplemented with 10% fetal bovine serum (FBS). […]
Viable cells were counted with a hemocytometer immediately before each experiment. […] Absorbance of formazan was detected by a microplate reader (BioTek Synergy H1) at 570 nm with 650 nm as the reference wavelength. The percentage of viability compared to the negative control (DMSO-treated cells) was determined . […]
MDA-MB-231, MCF-10A and HCT116. Viable cells were counted with a hemocytometer immediately before each experiment . […] Emission of each well at 620 nm was detected by a microplate reader (BioTek Synergy H1) at excitation 580 nm. […] Cells were treated for 96 h, then viability measured with AlamarBlue, detected using the conditions described but with a BMG Fluostar Optima Microplate Reader. […]

| Structure (SMILES) | pIC50 [1] | decrease in potency versus ipomoeassin F [2] |
| --- | --- | --- |
| C/C=C(\C)C(=O)O[C@@H]1[C@@H](O)[C@@H]2O[C@H]3[C@H](O[C@@H](CCCCC)CCCCCCC(=O)CCC(=O)OC[C@@H](O2)[C@H]1OC(=O)/C=C/c1ccccc1)O[C@H](C)[C@H](OC(C)=O)[C@@H]3O [ipomoeassin F] | 8.10 | – |
| C/C=C(\C)C(=O)O[C@H]1[C@H](OC(=O)/C=C/c2ccc(OCc3cn(CCOCCOCCOCCNC(=O)CCCC[C@@H]4SC[C@@H]5NC(=O)N[C@@H]54)nn3)cc2)[C@@H](O)[C@@H]2O[C@H]3[C@H](O[C@@H](CCCCC)CCCCCCC(=O)CCC(=O)OC[C@H]1O2)O[C@H](C)[C@H](OC(C)=O)[C@@H]3O [compound 5] | – | ~5 fold |
